Assay results from patent publication US11691969B2, “Pyridazinones as PARP7 inhibtors” (Ribon Therapeutics, Inc., priority 2019, dated 2023).
pIC50: −log10 of the molar value.

target: PARP7 (Homo sapiens (Human), UniProt Q7Z3E1); assay: TR-FRET assay: displacement of biotinylated Probe A from the TIPARP active site (Enzymatic Assay for Inhibition of PARP7); type: binding; settings: TIPARP 6 nM, Probe A 2 nM, 25° C.
Outline: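 6 nM His-tagged TIPARP and 2 nM biotinylated Probe A preincubated with compound 30 min at 25 °C in HEPES pH 8 buffer, then 4 nM ULight-anti-6×His and 0.25 nM Eu-streptavidin added for 30 min more. 665/615 nm ratio normalised to DMSO and 100 μM reference inhibitor controls; IC50 from 4-parameter fit.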

PARP7, sequence (Q7Z3E1 whole entry): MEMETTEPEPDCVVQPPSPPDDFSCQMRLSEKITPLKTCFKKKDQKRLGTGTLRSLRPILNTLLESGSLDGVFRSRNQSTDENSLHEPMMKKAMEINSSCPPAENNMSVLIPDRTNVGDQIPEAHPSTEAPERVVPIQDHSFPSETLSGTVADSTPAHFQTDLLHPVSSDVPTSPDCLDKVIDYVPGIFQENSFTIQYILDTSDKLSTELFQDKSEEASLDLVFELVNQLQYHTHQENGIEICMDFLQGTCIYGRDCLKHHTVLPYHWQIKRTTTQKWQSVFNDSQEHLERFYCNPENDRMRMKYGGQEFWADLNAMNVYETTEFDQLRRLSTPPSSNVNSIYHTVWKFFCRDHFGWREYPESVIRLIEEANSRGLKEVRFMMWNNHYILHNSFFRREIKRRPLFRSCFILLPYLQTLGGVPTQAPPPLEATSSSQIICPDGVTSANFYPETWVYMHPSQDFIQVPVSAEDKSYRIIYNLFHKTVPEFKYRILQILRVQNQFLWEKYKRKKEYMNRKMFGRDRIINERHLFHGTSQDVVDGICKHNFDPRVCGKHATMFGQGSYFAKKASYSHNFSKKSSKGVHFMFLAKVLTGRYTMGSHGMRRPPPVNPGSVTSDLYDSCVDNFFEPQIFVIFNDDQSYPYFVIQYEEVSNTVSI

| SMILES | pIC50 |
| --- | --- |
| C[C@@H](CO[C@@H]1CCN([C@@H]2CCN(c3ncc(C(F)(F)F)cn3)C[C@H]2O)C1=O)Nc1cn[nH]c(=O)c1C(F)(F)F [Example 57, 5-(((S)-1-(((R)-1-((3R,4R)-3-hydroxy-1-(5-(trifluoromethyl)pyrimidin-2-yl)piperidin-4-yl)-2-oxopyrrolidin-3-yl)oxy)propan-2-yl)amino)-4-(trifluoromethyl)pyridazin-3(2H)-one] | > 7.00 |
| C[C@@H](CN(C)C1CCN(C2CCN(c3ncc(C(F)(F)F)cn3)CC2)C1=O)Nc1cn[nH]c(=O)c1C(F)(F)F (stereo partly drawn) [Example 29, 5-(((S)-1-(methyl(2-oxo-1-(1-(5-(trifluoromethyl)pyrimidin-2-yl)piperidin-4-yl)pyrrolidin-3-yl)amino)propan-2-yl)amino)-4-(trifluoromethyl)pyridazin-3(2H)-one] | > 7.00 |
| C[C@@H](CO[C@@H]1CCN(C2CCN(c3ncc(C(F)(F)F)cn3)CC2C(N)=O)C1=O)Nc1cn[nH]c(=O)c1C(F)(F)F (stereo partly drawn) [Example 68, 4-((R)-2-oxo-3-((S)-2-((6-oxo-5-(trifluoromethyl)-1,6-dihydropyridazin-4-yl)amino)propoxy)pyrrolidin-1-yl)-1-(5-(trifluoromethyl)pyrimidin-2-yl)piperidine-3-carboxamide] | > 7.00 |
| C[C@@H](COC1CCN(C2CCN(c3ncc(C(F)F)cn3)CC2)C1=O)Oc1cn[nH]c(=O)c1C(F)(F)F (stereo partly drawn) [Example 27, 5-(((2S)-1-((1-(1-(5-(difluoromethyl)pyrimidin-2-yl)piperidin-4-yl)-2-oxopyrrolidin-3-yl)oxy)propan-2-yl)oxy)-4-(trifluoromethyl)pyridazin-3(2H)-one] | > 7.00 |
| C[C@@H](CO[C@@H]1CCN(C2CCN(c3ccc(C#N)cn3)CC2)C1=O)Oc1cn[nH]c(=O)c1Br [Example 48A] | > 7.00 |
| C[C@@H](CO[C@H]1CCN(C2CCN(c3ncc(C(F)(F)F)cn3)CC2O)C1=O)Oc1cn[nH]c(=O)c1C(F)(F)F (stereo partly drawn) [Example 64A, Syn-5-(((2S)-1-(((3S)-1-(3-hydroxy-1-(5-(trifluoromethyl)pyrimidin-2-yl)piperidin-4-yl)-2-oxopyrrolidin-3-yl)oxy)propan-2-yl)oxy)-4-(trifluoromethyl)pyridazin-3(2H)-one] | > 7.00 |
| C[C@@H](COCC(=O)N(C)C1CCN(c2ccc(C#N)cn2)CC1)Nc1cn[nH]c(=O)c1C(F)(F)F [Example 6, (S)—N-(1-(5-cyanopyridin-2-yl)piperidin-4-yl)-N-methyl-2-(2-((6-oxo-5-(trifluoromethyl)-1,6-dihydropyridazin-4-yl)amino)propoxy)acetamide] | > 7.00 |
| COC[C@@H](CO[C@H]1CCN(C2CCN(c3ccc(C#N)cn3)CC2)C1=O)Oc1cn[nH]c(=O)c1Br [Example 55A, 6-(4-((S)-3-((S)-2-((5-bromo-6-oxo-1,6-dihydropyridazin-4-yl)oxy)-3-methoxypropoxy)-2-oxopyrrolidin-1-yl)piperidin-1-yl)nicotinonitrile] | ≤ 6.00 |
| COC[C@@H](CO[C@H]1CCN(C2CCN(c3ccc(C#N)cn3)CC2)C1=O)Oc1cn[nH]c(=O)c1C(F)(F)F [Example 50A, 6-(4-((S)-3-((S)-3-methoxy-2-((6-oxo-5-(trifluoromethyl)-1,6-dihydropyridazin-4-yl)oxy)propoxy)-2-oxopyrrolidin-1-yl)piperidin-1-yl)nicotinonitrile] | 6.00 to 7.00 |
| COC[C@@H](CO[C@@H]1CCN(C2CCN(c3ccc(C#N)cn3)CC2)C1=O)Oc1cn[nH]c(=O)c1Br [Example 55B, 6-(4-((R)-3-((S)-2-((5-bromo-6-oxo-1,6-dihydropyridazin-4-yl)oxy)-3-methoxypropoxy)-2-oxopyrrolidin-1-yl)piperidin-1-yl)nicotinonitrile] | > 7.00 |
| CN(C(=O)COC[C@@H]1CCN1c1cn[nH]c(=O)c1C(F)(F)F)C1CCN(c2ncc(C(F)(F)F)cn2)CC1 [Example 8, (S)—N-methyl-2-((1-(6-oxo-5-(trifluoromethyl)-1,6-dihydropyridazin-4-yl)azetidin-2-yl)methoxy)-N-(1-(5-(trifluoromethyl)pyrimidin-2-yl)piperidin-4-yl)acetamide] | > 7.00 |
| CCN(C(=O)COC[C@H](C)Nc1cn[nH]c(=O)c1C(F)(F)F)C1CCN(c2ncc(C(F)(F)F)cn2)CC1 [Example 7, (S)—N-ethyl-2-(2-((6-oxo-5-(trifluoromethyl)-1,6-dihydropyridazin-4-yl)amino)propoxy)-N-(1-(5-(trifluoromethyl)pyrimidin-2-yl)piperidin-4-yl)acetamide] | > 7.00 |

Results, then the compound that gave them:

| pIC50 | SMILES |
| --- | --- |
| > 7.00 | C[C@@H](CO[C@@H]1CCN(C2CCN(c3cnc(C(F)(F)F)cn3)CC2)C1=O)Nc1cn[nH]c(=O)c1C(F)(F)F [Example 13B, 5-(((S)-1-(((R)-2-oxo-1-(1-(5-(trifluoromethyl)pyrazin-2-yl)piperidin-4-yl)pyrrolidin-3-yl)oxy)propan-2-yl)amino)-4-(trifluoromethyl)pyridazin-3(2H)-one] |
| ≤ 6.00 | C[C@@H]1CN(C2CCN(c3ncc(C(F)(F)F)cn3)CC2)C(=O)[C@H]1OC[C@H](C)Nc1cn[nH]c(=O)c1C(F)(F)F [Example 37A, 5-(((S)-1-(((3S,4R)-4-methyl-2-oxo-1-(1-(5-(trifluoromethyl)pyrimidin-2-yl)piperidin-4-yl)pyrrolidin-3-yl)oxy)propan-2-yl)amino)-4-(trifluoromethyl)pyridazin-3(2H)-one] |
| > 7.00 | C[C@@H](CO[C@H]1CCCN(C2CCN(c3ncc(C(F)(F)F)cn3)CC2)C1=O)Nc1cn[nH]c(=O)c1C(F)(F)F [Example 34A, (S)-3-((S)-2-((6-oxo-5-(trifluoromethyl)-1,6-dihydropyridazin-4-yl)amino)propoCyxy)-1′-(5-(trifluoromethyl)pyrimidin-2-yl)-[1,4′-bipiperidin]-2-one] |
| > 7.00 | C[C@@H](CO[C@@H]1CCN([C@@H]2CCN(c3ncc(C(F)(F)F)cn3)C[C@@H]2F)C1=O)Nc1cn[nH]c(=O)c1C(F)(F)F (single isomer, unassigned) [Example 39A] |
| > 7.00 | COC[C@@H](CO[C@@H]1CCN(C2CCN(c3ncc(C(F)(F)F)cn3)CC2)C1=O)Nc1cn[nH]c(=O)c1C(F)(F)F [Example 19B, 5-(((S)-1-methoxy-3-(((R)-2-oxo-1-(1-(5-(trifluoromethyl)pyrimidin-2-yl)piperidin-4-yl)pyrrolidin-3-yl)oxy)propan-2-yl)amino)-4-(trifluoromethyl)pyridazin-3(2H)-one] |
| > 7.00 | C[C@@H](CO[C@@H]1CCN(C2CCN(c3ncc(C(F)(F)F)cn3)CC2)C1=O)Nc1cn[nH]c(=O)c1Br [Example 32, 4-bromo-5-(((S)-1-(((R)-2-oxo-1-(1-(5-(trifluoromethyl)pyrimidin-2-yl)piperidin-4-yl)pyrrolidin-3-yl)oxy)propan-2-yl)amino)pyridazin-3(2H)-one] |
| 6.00 to 7.00 | C[C@@H](CO[C@H]1CCN(C2CCN(c3ncc(C(F)(F)F)cn3)CC2)C1=O)Oc1cn[nH]c(=O)c1Cl [Example 47A, 4-chloro-5-(((S)-1-(((S)-2-oxo-1-(1-(5-(trifluoromethyl)pyrimidin-2-yl)piperidin-4-yl)pyrrolidin-3-yl)oxy)propan-2-yl)oxy)pyridazin-3(2H)-one] |
| > 7.00 | C[C@@H](CO[C@@H]1CCN([C@H]2CCN(c3ncc(C(F)(F)F)cn3)C[C@@H]2F)C1=O)Nc1cn[nH]c(=O)c1C(F)(F)F (single isomer, unassigned) [Example 38B] |

test system: NCI-H1373 cells; assay: Tumor growth in human lung cancer model NCI-H1373 (subcutaneous xenograft); type: in vivo; settings: 100 mg/kg PO QD*28 days, NCI-H1373 tumors in CB-17 SCID mice, compared to vehicle (50% Labrasol)
Excerpt: Example B. PARP7 Inhibitors' Affect on Tumor Growth in Human Lung Cancer Models NCI-H1373
In this study, CB-17 SCID mice were inoculated subcutaneously at the right flank with NCI-H1373 cells for tumor development. Six days after tumor inoculation, 20 mice with tumor size ranging from 105-160 mm^3 (average tumor size 132 mm^3) were selected and assigned into 2 groups using stratified randomization with 10 mice in each group based upon their tumor volumes. The treatments were started from the next day post randomization (defined randomization day as day 0), and the mice were treated with vehicle (50% Labrasol), the compound of Example 57 (100 mg/kg PO. QD*28 days). The tumor sizes were measured three times per week during the treatment. The entire study was terminated on day 28.
Mean tumor volume and SEM were plotted (FIG. 1). Statistical significance, calculated using two-way ANOVA combined with Bonferroni post-test in which treatment group was compared to vehicle control, is indicated by an asterisk.

| SMILES | tumor growth (mean tumor volume) |
| --- | --- |
| C[C@@H](CO[C@@H]1CCN([C@@H]2CCN(c3ncc(C(F)(F)F)cn3)C[C@H]2O)C1=O)Nc1cn[nH]c(=O)c1C(F)(F)F [Example 57, 5-(((S)-1-(((R)-1-((3R,4R)-3-hydroxy-1-(5-(trifluoromethyl)pyrimidin-2-yl)piperidin-4-yl)-2-oxopyrrolidin-3-yl)oxy)propan-2-yl)amino)-4-(trifluoromethyl)pyridazin-3(2H)-one] | significantly reduce tumor growth |
